Results as given in ChEMBL document CHEMBL3797190, “Development of 3,5-Dinitrobenzylsulfanyl-1,3,4-oxadiazoles and Thiadiazoles as Selective Antitubercular Agents Active Against Replicating and Nonreplicating Mycobacterium tuberculosis” (J Med Chem, 2016).
≈ marks a conversion by molar mass, not a printed value. Calls of active or inactive are those of the source. No cut-off for these calls is given here.

Key:
Mycobacterium kansasii [1] = assay: Antimycobacterial activity against Mycobacterium kansasii CNCTC My 235/80 after 14 days by microdilution method; assay type: functional; conditions: CNCTC My 235/80, 336 h
Mycobacterium kansasii [2] = assay: Antimycobacterial activity against Mycobacterium kansasii CNCTC My 6509/96 after 14 days by microdilution method; assay type: functional; conditions: CNCTC My 6509/96, 336 h
[3] = test system: Mycobacterium tuberculosis; assay: Antimycobacterial activity against Mycobacterium tuberculosis CNCTC My 331/88 after 21 days by microdilution method; assay type: functional; conditions: CNCTC My 331/88, 504 h
Mycobacterium kansasii [4] = assay: Antimycobacterial activity against Mycobacterium kansasii CNCTC My 235/80 after 7 days by microdilution method; assay type: functional; conditions: CNCTC My 235/80, 168 h
Mycobacterium kansasii [5] = assay: Antimycobacterial activity against Mycobacterium kansasii CNCTC My 6509/96 after 7 days by microdilution method; assay type: functional; conditions: CNCTC My 6509/96, 168 h
[6] = Cytotoxicity against human HuH7 cells assessed as cell viability after 24 hrs by MTS assay; assay type: cell-based; conditions: Huh-7, 24 h
[7] = Cytotoxicity against human HuH7 cells assessed as cell viability after 48 hrs by MTS assay; assay type: cell-based; conditions: Huh-7, 48 h
[8] = Cytotoxicity against human HuH7 cells assessed as cell viability at 20 uM after 48 hrs by MTS assay; assay type: cell-based, Huh-7; conditions: read-out: Activity
[9] = Cytotoxicity against MDCK2-MDR1 cells assessed as cell viability at 20 uM after 24 hrs by MTS assay; assay type: ADME, cell-based, Canis lupus familiaris, MDCK-II; conditions: dog, read-out: Activity
Hepatocyte = assay: Cytotoxicity against primary human hepatocytes assessed as cell viability after 48 hrs by MTS assay; assay type: cell-based
Candida tropicalis = assay: Antifungal activity against Candida tropicalis 156 after 24 to 48 hrs by broth microdilution method; assay type: functional
Trichosporon asahii = assay: Antifungal activity against Trichosporon asahii 1188 after 24 to 48 hrs by broth microdilution method; assay type: functional
Aspergillus fumigatus = assay: Antifungal activity against Aspergillus fumigatus 231 after 24 to 48 hrs by broth microdilution method; assay type: functional
Lichtheimia corymbifera = assay: Antifungal activity against Absidia corymbifera 272 after 24 to 48 hrs by broth microdilution method; assay type: functional
Staphylococcus aureus = assay: Antibacterial activity against methicillin-resistant Staphylococcus aureus H 5996/08 after 24 to 48 hrs by broth microdilution method; assay type: functional
Klebsiella pneumoniae = assay: Antibacterial activity against ESBL producing Klebsiella pneumoniae J 14368/08 after 24 to 48 hrs by broth microdilution method; assay type: functional
[10] = test system: Mycobacterium tuberculosis; assay: Antimycobacterial activity against Mycobacterium tuberculosis CNCTC My 331/88 using 1 month stored compound at room temperature in DMSO after 14 to 21 days by microdilution method; assay type: functional, organism-based
[11] = Cytotoxicity against MDCK2-MDR1 cells assessed as cell viability after 48 hrs by MTS assay; assay type: ADME, cell-based; conditions: Canis lupus familiaris, MDCK-II
[12] = Chemical stability of compound in DMSO under open-vessel condition at 4 mg/ml at 60 degC after 3 days by 1H-NMR analysis; assay type: physicochemical; conditions: 72 h
PBL [13] = assay: Genotoxicity in human PBL at 0.6 to 12 mM by micronucleus test in presence of metabolic activation; assay type: toxicity, cell-based; conditions: 12000 µM
PBL [14] = assay: Genotoxicity in human PBL at 0.6 to 12 mM by micronucleus test in absence of metabolic activation; assay type: toxicity, cell-based; conditions: 12000 µM
PBL [15] = assay: Genotoxicity in human PBL at 0.6 to 12 mM by chromosome aberration test in presence of metabolic activation; assay type: toxicity, cell-based; conditions: 12000 µM
PBL [16] = assay: Genotoxicity in human PBL at 0.6 to 12 mM by chromosome aberration test in absence of metabolic activation; assay type: toxicity, cell-based; conditions: 12000 µM

Row | Structure (SMILES) | MIC99 (Mycobacterium kansasii [1]) [µM] | MIC99 (Mycobacterium kansasii [2]) [µM] | MIC99 [3] [µM] | MIC99 (Mycobacterium kansasii [4]) [µM] | MIC99 (Mycobacterium kansasii [5]) [µM] | IC50 [6] [µM] | viability at 48 h, 20 µM [8] [%] | viability at 24 h, 20 µM [9] [%] | IC50 (Hepatocyte) [µM] | MIC80 (Candida tropicalis) [µM] | MIC80 (Trichosporon asahii) [µM] | MIC50 (Aspergillus fumigatus) [µM] | MIC50 (Lichtheimia corymbifera) [µM] | MIC95 (Staphylococcus aureus) [µM] | MIC95 (Klebsiella pneumoniae) [µM] | Activity [10] | also measured
1 | Cc1ccc(-c2nnc(SCc3cc([N+](=O)[O-])cc([N+](=O)[O-])c3)o2)cc1 | 0.06 (≈ 0.0223 µg/mL) | 0.06 (≈ 0.0223 µg/mL) | ≤ 0.03 | 0.06 (≈ 0.0223 µg/mL) | 0.06 (≈ 0.0223 µg/mL) | > 20 | 53.1 | 98 | > 20 | > 125 | > 125 | > 125 | > 125 | > 125 | > 125 | Active | IC50 [7]: > 20 µM
2 | O=[N+]([O-])c1cc(CSc2nnc(-c3ccc(Cl)cc3)s2)cc([N+](=O)[O-])c1 | 0.5 (≈ 0.204 µg/mL) | 0.25 (≈ 0.102 µg/mL) | 0.06 (≈ 0.0245 µg/mL) | 0.125 (≈ 0.0511 µg/mL) | 0.125 (≈ 0.0511 µg/mL) | > 20 | 43.4 | 102 | > 20 | > 125 | > 125 | > 125 | > 125 | > 125 | > 125 | Active | IC50 [11]: > 20 µM; Stability [12]: Stable; Activity (PBL [13]): Non-toxic; Activity (PBL [14]): Non-toxic; Activity (PBL [15]): Non-toxic; Activity (PBL [16]): Non-toxic
